Laboratory results from patent publication US6465636B1, “Pathogen-inducible promoter” (Zeneca Mogen B.V., priority 1998, dated 2002).
Read-outs that look alike come from different tables or passages of the source.

Tested on: ms59 messenger
Assay: Induction of ms59 messengers in sunflower leaves, transcript levels by competitive RT-PCR
Type: in vivo, Helianthus annuus cv Zebulon
Details: Helianthus annuus, read-out: fold induction of the ms59 messenger relative to the control
Description: Leaves of 7 to 8 weeks old Sunflower plants (Helianthus annuus cv Zebulon) were induced by spraying 5 times with 5 mM salicylic acid (SA), spraying once with 1 mM salicylic acid, once with 0.1 mm jasmonic acid (JA), once with 1 mM ACC (1-aminocyclopropane-1-carboxylic acid, a precursor of the plant hormone ethylene) or wounding. Leaf samples were harvested from induced leaves after 24 hours (1 mM SA, 0.1 mM JA, 1 mM ACC and wounding) and after 5 days (5 mM SA). Control samples were taken at 24 hours after induction in non-induced plants.
Total RNA was extracted from 10 g leaf material using a hot phenol method and purified using the Qiagen RNA buffer set and tip-100 columns (Qiagen GmbH, Germany). Contaminating DNA was degraded using a Dnase I (Gibco BRL) treatment.
cDNA was prepared using 1 μg total RNA, 1 μl oligo(dT)12-18 primers (500 μg/ml, Gibco BRL) and 200 units of Superscript II RT RNAse H reverse transcriptase (Gibco BRL) as described by the manufacturer.
Transcript levels of ms59 were determined using the competitive RT-PCR technology.
PCR MIMIC dilutions were made in a range of […] to 0.01 ag/μl in H2O containing 0.2 μg/μl glycogen as a carrier.
The cDNA samples were analysed in a competitive RT-PCR. Therefore 2 µl of the samples was combined in a 0.5 ml tube with 1 μl diluted PCR MIMIC (amounts; 0.1 pg, 10 fg, 1.0 fg, 0.1 fg, 10 ag and 1.0 ag). Amplification of cDNA and MIMIC was performed using 10 μM of the primers FR-MS59-47 and FR-MS59-77, 0.5 μl 20 mM dNTP's, 1×PCR buffer, MgCl and 2.5 units recombinant Taq DNA polymerase (Gibco BRL) and was allowed to proceed for 35 cycles, 1′ 95° C., 1′ 55° C., 2′ 72° C. PCR products were separated on a 2% agarose gel and visualized by staining with ethidium bromide and a UV illuminator.

NC1(C(=O)O)CC1 [ACC, 1-aminocyclopropane-1-carboxylic acid]
fold induction at 1000 µM (24 h): 10

CC/C=C\C[C@H]1C(=O)CC[C@@H]1CC(=O)O [jasmonic acid]
fold induction at 100 µM (24 h): 10

O=C(O)c1ccccc1O [salicylic acid]
fold induction at 5000 µM (120 h, 5 mM, leaves sprayed 5 times, harvested after 5 days): 1000 | fold induction at 1000 µM (1 mM, leaves sprayed once, harvested after 24 hours): 1
